# US5977165A, “Radicicol derivatives” (Kyowa Hakko Kogyo Co., Ltd., priority 1995, dated 1999)
# Like-named read-outs stand apart in the source and are kept apart here.
# How the values were obtained:
# [1] = system: T cell growth; experiment: T cell growth inhibition test by mixed mouse lymphocyte culture reaction; assay type: cell-based; conditions: 72 hours, 37° C., [^3 H]-thymidine incorporation, AKR spleen / B10.BR lymph node cells
# Procedure: T Cell Growth Inhibition Test by Mixed Mouse Lymphocyte Culture Reaction
# The spleen was excised aseptically from an AKR mouse (Japan SLC Co., Ltd.) and made into a single cell suspension. The suspension was mixed with mitomycin C (MMC) (Kyowa Hakko Kogyo Co., Ltd.) (final concentration, 50 μg/ml) and cultured at 37° C. for 30 minutes. After the culturing, the cells were washed three times with a solution (HBSS) prepared by adding 2.5% fetal calf serum (FCS, Gibco Co.) to Hanks' balanced salt solution (Gibco Co.) and then adjusted to a density of 1×10^7 cells/ml.
# A 50 μl portion of B10.BR mouse (Japan SLC Co., Ltd.) lymph node cell suspension (containing 1.5×10^5 cells), 50 μl of AKR mouse spleen cell suspension (containing 5×10^5 cells) and 100 μl of radicicol solution having each test concentration were added to each well of a 96 well microtiter plate and cultured at 37° C. for 72 hours in a CO2 incubator. A 1.0 μCi portion of [^3 H]-thymidine was added 18 hours before the completion of the culturing. After completion of the culturing, the cells were trapped on a filter paper using a cell harvester and dried, and then a toluene scintillator was added thereto to measure the amount of radioactivity of [^3 H]-thymidine incorporated into cells using a scintillation counter (test group). As a control group, the same culturing was carried out without adding the solution of Compound (I) and then the amount of radioactivity of [^3 H]-thymidine incorporated into cells was measured. The T cell growth inhibition ratio was calculated based on the following formula, from which the concentration of each test compound that inhibits 50% of the growth (IC50 was calculated. [formula] (In the above formula, the radioactivity in MMC-treated AKR mouse means the radiation dose of [^3 H]-thymidine incorporated into MMC-treated AKR mouse spleen cells, and the radioactivity in B10.BR mouse means the radiation dose of [^3 H]-thymidine incorporated into B10.BR mouse lymph node cells.)
# [2] = system: Eacillus subtilis No. 10707; experiment: Antibacterial activity test (agar dilution method); assay type: cell-based; conditions: pH 7, Eacillus subtilis No. 10707, read-out: Minimum growth inhibition concentration (MIC), BS
# Procedure: (§1) Antibacterial Activity Test
# (§2) the antibacterial activity was measured by an agar dilution method using a medium (pH 7) which has been prepared by dissolving 3 g of Bacto-Tryptone (manufactured by Difco), 3 g of meat extract, 1 g of yeast extract, 1 g of flucose and 16 g of agar in 1 l of water. The antibacterial activity was expressed by minimum growth inhibition concentration (MIC).
# BS: Eacillus subtilis No. 10707
# [3] = system: P388 leukemia; experiment: Antitumor test on P388 leukemia; assay type: in vivo, mouse; conditions: CDF1 mice, 1×10^6 P388 cells i.p., compound into abdominal cavity 24 hours after transplantation, 30 days; dose not given
# Procedure: Antitumor Test on P388 Leukemia
# The ascitic fluid was collected from the abdominal cavity of P388 ascites-induced mouse (DBA/2) 7 days after the transplantation. The number of P388 cells in the ascitic fluid was counted to prepare a tumor cell suspension of 5×10^6 cells/ml using sterilized physiological saline, and its 0.2 ml portion (containing 1×10^6 cells) was transplanted into the abdominal cavity of CDF1 mice having 20 to 25 g in body weight. […] Effects of the test compounds were judged by the ratio of average survival days in the test compound-administered group to that in the control group (un-treated group) (increased life span, ILS %).
# [4] = system: sarcoma 180 solid tumor; experiment: Antitumor test on sarcoma 180 solid tumors; assay type: in vivo, mouse; conditions: ddY mice, intravenous injection 24 hours after s.c. transplantation, tumor volume at 7 days; dose not given
# Procedure: Antitumor Test on Sarcoma 180 Solid Tumors
# Seven days after transplantation of 5×10^6 of sarcoma 180 cells into the abdominal cavity of a ddY mouse, the cells were collected from the ascitic fluid, washed once with sterilized physiological saline and then made into a cell suspension of 5×10^7 cells/ml using sterilized physiological saline. A 0.1 ml portion of the cell suspension was transplanted under the skin of the right side axillary part of ddY mice of 20±2 g in body weight and, after 24 hours of the tumor transplantation, 0.1 to 0.2 ml of each test compound dissolved in physiological saline or polyoxyethylene sorbitan monolaurate-containing physiological saline was administered by intravenous injection to ddY mice of 5 animals per group. The major axis (a) and the minor axis (b) of each tumor 7 days after the transplantation were measured to calculate the tumor volume as an a×b^2 /2 value. Antitumor activity of each test compound was expressed by the ratio (T/C) of the tumor volume (T) of the test compound-administered group to the tumor volume (C) of the control group in which the drug was not administered.
# [5] = system: HeLa S3 cells; experiment: Cell growth inhibition test on HeLa S3 cells; assay type: cell-based; conditions: Homo sapiens, read-out: IC50, cell growth inhibition activity upon HeLa S3 cells
# Procedure: Cell Growth Inhibition Test on HeLa S3 Cells
# HeLa S3 cells which have been adjusted to 3.0×10^4 cells/ml with MEM medium (manufactured by Nissui Pharmaceutically containing 10% fetal calf serum and 2 mM […] were dispensed in 0.1 ml/well portions into a 96 well microtiter plate. The cells were cultured at 37° C. for 20 hours in a carbon dioxide gas incubator, the culture supernatant was removed and then the plate was washed once with physiological saline. Next, 0.1 ml of the medium containing each test compound was added to each well, and the cells were cultured at 37° C. for 72 hours in the carbon dioxide gas incubator. After removing the culture supernatant, 0.1 ml of the medium containing 0.02% Neutral Red was added to each well, and the cells were stained at 37° C. for 1 hour in the carbon dioxide gas incubator. After removing the culture supernatant, the plate was washed once with physiological saline, the pigment was extracted with 0.001 N hydrochloric acid/30% ethanol and then absorption at 550 nm was measured by a microplate reader. The concentration of each test compound which inhibits 50% of the cell growth (IC50) was calculated by comparing the absorption of un-treated cells with that of the cells treated with known concentration of each sample.
# [6] = system: Candida albicans ATCC 10231; experiment: Antibacterial activity test (agar dilution method); assay type: cell-based; conditions: ATCC10231, pH 7, Candida albicans ATCC 10231, read-out: Minimum growth inhibition concentration (MIC), CA
# Procedure: as §1, §2
# CA: Candida albicans ATCC 10231
# [7] = system: intracellular tyrosine kinase (v-Src tyrosine kinase, SR-3Y1 cells); experiment: Inhibition test of intracellular tyrosine kinase (tyrosine phosphorylation, Western blotting, SR-3Y1 cells); assay type: cell-based; conditions: Rattus norvegicus, SR3Y1, 37° C., 15 hours, tyrosine-phosphorylated protein, read-out: IC50, inhibitory activity of intracellular tyrosine kinase
# Excerpt: The inhibitory effect of the tyrosine kinase activity can be measured by carrying out Western blotting analysis with an anti-phosphotyrosine antibody using a rat fibroblast cell strain SR-3Y1 transformed with an oncogene v-Src (available from RIKEN Gene Bank) and calculating the amount of intracellular protein in which tyrosine is phosphorylated. Since the tyrosine phosphorylation level of intracellular protein in SR-3Y1 cells for use in this method is increased by v-Src tyrosine kinase, the ability of radicicol derivatives to inhibit v-Src tyrosine kinase can be detected as reduction of the amount of protein in which tyrosine is phosphorylated. Robinson, S. P. et al. [International Journal of Oncology, 2, 253 (1993)] report a method for examination of tyrosine phosphorylation inhibition effect by Western blotting analysis, and Kwon, H. J. et al. [Cancer Research, 52, 6926 (1992)] report examples of experiment using SR-3Y1 cells.
# Inhibition Test of Intracellular Tyrosine Kinase
# SR-3Y1 cells were cultured at 37° C. for 15 hours in an atmosphere of 5% carbon dioxide, using Dulbecco's modified Eagle's medium (DMEM) containing 10% fetal calf serum (FCS), to which each radicicol derivative to be tested has been added in varied concentration. The thus cultured cells were lysed at 4° C. for 20 minutes in a cooled buffer solution for lysis use (50 mM Tris HCl, pH 7.5, 150 mM NaCl, 1% Triton X-100, 0.1% SDS, 1% sodium deoxycholate, 2 mM EDTA, 1 mM PMSF, 20 μM leupeptin, 0.15 unit/ml aprotinin, 1 mM Na3 VO4) and then centrifuged at 20,000 g for 30 minutes. After measuring protein concentration in the resulting supernatant fluid, samples were adjusted to the same protein quantity per lane to carry out separation of protein by SDS-PAGE. The thus separated protein samples were transferred onto a nitrocellulose membrane to which were subsequently added a mouse […] phosphotyrosine antibody MX-pTYR (Kyowa Medex Co., Ltd.) as a first antibody and a horseradish peroxidase-conjugated […] (BIO-RAD Co.) as a second antibody, thereby effecting their reactions with the protein samples on the membrane. Detection was carried out using ECL reagent (Amersham Co.), and the amount of tyrosine-phosphorylated protein was determined by scanning the density of banks obtained on an X-ray film. The activity of radicicol derivative to inhibit tyrosine phosphorylation can be shown as a concentration (IC50) of each derivative by which the ratio of tyrosine-phosphorylated protein is reduced to half in comparison with a control to which the drug is not added.
# [8] = system: Enterococcus hirae ATCC 10541; assay type: cell-based; conditions: pH 7
# Procedure: as §1, §2
# EH: Enterococcus hirae ATCC 10541
# [9] = HeLa S3, 72 hours, 37° C., Neutral Red
Compound,IC50 [1] [µM],MIC [2] [mg/L],"IC50 [5, 9] [µM]",IC50 [7] [µM],other results
C[C@@H]1C[C@@H](O)C(Br)/C=C\C=C\C(=O)Cc2c(Cl)c(O)cc(O)c2C(=O)O1 (some centres unmarked) [Compound 3],0.3,83,,,increased life span (ILS) [3]: 46%
C[C@@H]1C[C@@H](O)C(Cl)/C=C\C=C\C(=O)Cc2c(Cl)c(O)cc(O)c2C(=O)O1 (some centres unmarked) [Compound 2],,,,,T/C (tumor volume ratio) [4]: 50%
CC(=O)Oc1cc(OC(C)=O)c2c(c1Cl)CC(=O)/C=C/C=C\C(Cl)[C@H](OC=O)C[C@@H](C)OC2=O (some centres unmarked) [Compound 6],,,5,,
CON=C1/C=C/C=C\[C@H]2O[C@@H]2C[C@@H](C)OC(=O)c2c(O)cc(O)c(Cl)c2C1 [Compound 9],0.02,52,0.05,< 0.05,MIC [6]: 6.5 mg/L
CC(=O)Oc1cc(OC(C)=O)c2c(c1Cl)CC(=O)C=CC=CC(Cl)C(OS(=O)OC1CC(C)OC(=O)c3c(OC(C)=O)cc(OC(C)=O)c(Cl)c3CC(=O)C=CC=CC1Cl)CC(C)OC2=O (centres unmarked) [Compound 7],,,1.5,,
C[C@@H]1C[C@H]2O[C@@H]2/C=C\C=C\C(=NO)Cc2c(Cl)c(O)cc(O)c2C(=O)O1 [Compound 8],0.01,,0.09,0.02,
C[C@@H]1C[C@H]2O[C@@H]2/C=C\C=C\C(=NOCCCN=[N+]=[N-])Cc2c(Cl)c(O)cc(O)c2C(=O)O1 [Compound 14],,,0.05,< 0.05,
C[C@@H]1C[C@H]2O[C@@H]2/C=C\C=C\C(=NO)Cc2c(Cl)c(O[Si](C)(C)C(C)(C)C)cc(O[Si](C)(C)C(C)(C)C)c2C(=O)O1 [Compound 11],,,,0.02,"IC50 ([5]; HeLa S3, 72 h): 0.12 µM"
CCCCCCCCCCCCCCCC(=O)Oc1cc(OC(=O)CCCCCCCCCCCCCCC)c2c(c1Cl)CC(=O)/C=C/C=C\C(Br)[C@H](O)C[C@@H](C)OC2=O (some centres unmarked) [Compound 19],0.15,,,,
C[C@@H]1C[C@@H](OC=O)C(Cl)/C=C\C=C\C(=O)Cc2c(Cl)c(O)cc(O)c2C(=O)O1 (some centres unmarked) [Compound 1],,83,,,T/C (tumor volume ratio) [4]: 51%; increased life span (ILS) [3]: 38%
COCON=C1/C=C/C=C\[C@H]2O[C@@H]2C[C@@H](C)OC(=O)c2c(O)cc(O)c(Cl)c2C1 [Compound 13],,,0.02,,
CC1CC(OS(=O)OC2CC(C)OC(=O)c3c(O)cc(O)c(Cl)c3CC(=O)C=CC=CC2Cl)C(Cl)C=CC=CC(=O)Cc2c(Cl)c(O)cc(O)c2C(=O)O1 (centres unmarked) [Compound 4],,1.3,6,,"T/C (tumor volume ratio) [4]: 39%; Minimum growth inhibition concentration (MIC), EH [8]: 2.6 mg/L; MIC [6]: 2.6 mg/L; increased life span (ILS) [3]: 42%"
"C[C@@H]1C[C@H]2O[C@@H]2/C=C\C=C\C(=O)Cc2c(Cl)c(O)cc(O)c2C(=O)O1 [Radicicol, radicicol]",0.15,83,,0.18,"T/C (tumor volume ratio) [4]: 88%; IC50 ([5]; HeLa S3, 72 h): 6.7 µM; MIC [6]: 20 mg/L; increased life span (ILS) [3]: 27%"
C[C@@H]1C[C@H]2O[C@@H]2/C=C\C=C\C(=O)Cc2c(Cl)c(O[Si](C)(C)C(C)(C)C)cc(O[Si](C)(C)C(C)(C)C)c2C(=O)O1 [Compound 10],,,3.2,0.15,
